Key:
Type in all cases: functional, Cricetulus griseus
[1] = tested on: CHO; experiment: The sensitizing capacity for colchicine treatment of multi drug resistance (MDR) CHO cell at concentration 1.0(mg/L).
[2] = tested on: CHO; experiment: The sensitizing capacity for colchicine treatment of multi drug resistance(MDR) in CHO cell at concentration 0.1(mg/L).
[3] = tested on: CHO; experiment: Sensitization of colchicine treated parental (PAR)CHO cells, measured at concentration 0.1(mg/L)
[4] = tested on: CHO; experiment: The sensitizing capacity for colchicine treatment of parental (PAR)CHO cells at concentration 1.0 (mg/L)

Structure (SMILES)	Activity [1]	Activity [2]	Activity [3]	Activity [4]
CC[C@H](C)[C@H]1C(=O)NCC(=O)N(C)[C@@H](C(C)C)C(=O)N[C@@H](Cc2ccc(OC)cc2)C(=O)O[C@H](C)C(=O)N2CCCC[C@H]2C(=O)N(C)[C@@H](C(C)C)C(=O)N[C@@H](C(C)C)C(=O)N(C)[C@@H](CC(=O)OC23CC4CC(CC(C4)C2)C3)C(=O)N(C)[C@@H]([C@@H](C)CC)C(=O)N1C	77	1.9	4.5	6
CC[C@@H](C)[C@H]1C(=O)NCC(=O)N(C)[C@@H](C(C)C)C(=O)N[C@@H](Cc2ccc(OC)cc2)C(=O)O[C@@H](C)C(=O)N2CCCC[C@H]2C(=O)N(C)[C@@H](C(C)C)C(=O)N[C@@H](C(C)C)C(=O)N(C)[C@H](CC(=O)N[C@H](C(=O)OC(C)(C)C)C(C)C)C(=O)N(C)[C@@H]([C@@H](C)CC)C(=O)N1C	344	115	8.6	11
CC[C@H](C)[C@H]1C(=O)NCC(=O)N(C)[C@@H](C(C)C)C(=O)N[C@@H](Cc2ccc(OC)cc2)C(=O)O[C@H](C)C(=O)N2CCCC[C@H]2C(=O)N(C)[C@@H](C(C)C)C(=O)N[C@@H](C(C)C)C(=O)N(C)[C@@H](CC(=O)OCCC(C)(C)C)C(=O)N(C)[C@@H]([C@@H](C)CC)C(=O)N1C	95	1.9	7.5	8.7
CC[C@H](C)[C@H]1C(=O)N(C)[C@@H]([C@@H](C)CC)C(=O)NCC(=O)N(C)[C@@H](C(C)C)C(=O)N[C@@H](Cc2ccc(OC)cc2)C(=O)O[C@H](C)C(=O)N2CCCC[C@H]2C(=O)N(C)[C@@H](C(C)C)C(=O)N[C@@H](C(C)C)C(=O)N(C)[C@H](CC(=O)N2CCC[C@H]2C(=O)OC(C)(C)C)C(=O)N1C	222	10	6.8	8.2
C=CCNC(=O)C[C@@H]1C(=O)N(C)[C@@H]([C@@H](C)CC)C(=O)N(C)[C@@H]([C@H](C)CC)C(=O)NCC(=O)N(C)[C@@H](C(C)C)C(=O)N[C@@H](Cc2ccc(OC)cc2)C(=O)O[C@H](C)C(=O)N2CCCC[C@H]2C(=O)N(C)[C@@H](C(C)C)C(=O)N[C@@H](C(C)C)C(=O)N1C	67	1.1	5	9.3
CC[C@H](C)[C@H]1C(=O)NCC(=O)N(C)[C@@H](C(C)C)C(=O)N[C@@H](Cc2ccc(OC(C)(C)C)cc2)C(=O)O[C@H](C)C(=O)N2CCCC[C@H]2C(=O)N(C)[C@@H](C(C)C)C(=O)N[C@@H](C(C)C)C(=O)N(C)[C@@H](CC(=O)OC(C)(C)C)C(=O)N(C)[C@@H]([C@@H](C)CC)C(=O)N1C	300	28	6.7	9
CC[C@@H](C)[C@H]1C(=O)NCC(=O)N(C)[C@@H](C(C)C)C(=O)N[C@@H](Cc2ccc(OC)cc2)C(=O)O[C@H](C)C(=O)N2CCCC[C@H]2C(=O)N(C)[C@@H](C(C)C)C(=O)N[C@@H](C(C)C)C(=O)N(C)[C@H](CC(=O)N[C@H](CO)C(C)C)C(=O)N(C)[C@@H]([C@@H](C)CC)C(=O)N1C	144	3.2	7.6	9.8
CC[C@H](C)[C@H]1C(=O)NCC(=O)N(C)[C@@H](C(C)C)C(=O)N[C@@H](Cc2ccc(O)cc2)C(=O)O[C@H](C)C(=O)N2CCCC[C@H]2C(=O)N(C)[C@@H](C(C)C)C(=O)N[C@@H](C(C)C)C(=O)N(C)[C@@H](CC(=O)OCc2ccccc2)C(=O)N(C)[C@@H]([C@@H](C)CC)C(=O)N1C	26	1.2	4.4	14
CC[C@@H](C)[C@H]1C(=O)NCC(=O)N(C)[C@@H](C(C)C)C(=O)N[C@@H](Cc2ccc(OCc3ccccc3)cc2)C(=O)O[C@H](C)C(=O)N2CCCC[C@H]2C(=O)N(C)[C@@H](C(C)C)C(=O)N[C@@H](C(C)C)C(=O)N(C)[C@H](CC(=O)O)C(=O)N(C)[C@@H]([C@@H](C)CC)C(=O)N1C	2.1	1.3	1.1	3.9
CC[C@@H](C)[C@H]1C(=O)N(C)CC(=O)N(C)[C@@H](C(C)C)C(=O)N(C)[C@@H](Cc2ccc(OC)cc2)C(=O)O[C@H](C)C(=O)N2CCCC[C@H]2C(=O)N(C)[C@@H](C(C)C)C(=O)N(C)[C@@H](C(C)C)C(=O)N(C)[C@H](CC(=O)OC)C(=O)N(C)[C@@H]([C@@H](C)CC)C(=O)N1C	5.5	1.1	1.3	4.6
CC[C@@H](C)[C@H]1C(=O)N(C)CC(=O)N(C)[C@@H](C(C)C)C(=O)N(C)[C@@H](Cc2ccc(OC)cc2)C(=O)O[C@H](C)C(=O)N2CCCC[C@H]2C(=O)N(C)[C@@H](C(C)C)C(=O)N(C)[C@@H](C(C)C)C(=O)N(C)[C@H](CC(=O)OC(C)(C)C)C(=O)N(C)[C@@H]([C@@H](C)CC)C(=O)N1C	24	1.2	3.6	8.7
CC[C@H](C)[C@H]1C(=O)N(C)[C@@H]([C@@H](C)CC)C(=O)NCC(=O)N(C)[C@@H](C(C)C)C(=O)N[C@@H](Cc2ccc(OC)cc2)C(=O)O[C@H](C)C(=O)N2CCCC[C@H]2C(=O)N(C)[C@@H](C(C)C)C(=O)N[C@@H](C(C)C)C(=O)N(C)[C@H](CN(C)C(C=O)C/C=C/C(=O)OC(C)(C)C)C(=O)N1C (stereo partly specified)	97	19	7.6	8.7
CC[C@@H](C)[C@H]1C(=O)NCC(=O)N(C)[C@@H](C(C)C)C(=O)N[C@@H](Cc2ccc(OC)cc2)C(=O)N[C@@H](C)C(=O)N2CCCC[C@H]2C(=O)N(C)[C@@H](C(C)C)C(=O)N[C@@H](C(C)C)C(=O)N(C)[C@H](CC(=O)OC(C)(C)C)C(=O)N(C)[C@@H]([C@@H](C)CC)C(=O)N1C	144	5.2	4.6	6.2
CC[C@@H](C)[C@H]1C(=O)NCC(=O)N(C)[C@@H](C(C)C)C(=O)N[C@@H](Cc2ccc(OC)cc2)C(=O)O[C@H](C)C(=O)N2CCCC[C@H]2C(=O)N(C)[C@@H](C(C)C)C(=O)N[C@@H](C(C)C)C(=O)N(C)[C@H](CC(=O)N(C)C)C(=O)N(C)[C@@H]([C@@H](C)CC)C(=O)N1C	36	1.2	5.9	8.5
CC[C@@H](C)[C@H]1C(=O)NCC(=O)N(C)[C@@H](C(C)C)C(=O)N[C@@H](Cc2ccc(OC)cc2)C(=O)O[C@@H](C)C(=O)N2CCCC[C@H]2C(=O)N(C)[C@@H](C(C)C)C(=O)N[C@@H](C(C)C)C(=O)N(C)[C@H](CC(=O)NC2CCCCC2)C(=O)N(C)[C@@H]([C@@H](C)CC)C(=O)N1C	286	72		
C=CCOc1ccc(C[C@@H]2NC(=O)[C@H](C(C)C)N(C)C(=O)CNC(=O)[C@H]([C@@H](C)CC)N(C)C(=O)[C@H]([C@@H](C)CC)N(C)C(=O)[C@H](CC(=O)OC(C)(C)C)N(C)C(=O)[C@H](C(C)C)NC(=O)[C@H](C(C)C)N(C)C(=O)[C@@H]3CCCCN3C(=O)[C@@H](C)OC2=O)cc1	9.6	1.5	5.8	11
CC[C@@H](C)[C@H]1C(=O)NCC(=O)N(C)[C@@H](C(C)C)C(=O)N[C@@H](Cc2ccc(OC)cc2)C(=O)O[C@H](C)C(=O)N2CCCC[C@H]2C(=O)N(C)[C@@H](C(C)C)C(=O)N[C@@H](C(C)C)C(=O)N(C)[C@H](CC=O)C(=O)N(C)[C@@H]([C@@H](C)CC)C(=O)N1C	28	1.1	4.6	8.2
CC[C@@H](C)[C@H]1C(=O)NCC(=O)N(C)[C@@H](C(C)C)C(=O)N[C@@H](Cc2ccc(OC)cc2)C(=O)O[C@H](C)C(=O)N2CCCC[C@H]2C(=O)N(C)[C@@H](C(C)C)C(=O)N[C@@H](C(C)C)C(=O)N(C)[C@H](CC(=O)NC(c2ccccc2)c2ccccc2)C(=O)N(C)[C@@H]([C@@H](C)CC)C(=O)N1C	147	6.4	7.5	13
CC[C@H](C)[C@H]1C(=O)NCC(=O)N(C)[C@@H](C(C)C)C(=O)N[C@@H](Cc2ccc(OC)cc2)C(=O)O[C@H](C)C(=O)N2CCCC[C@H]2C(=O)N(C)[C@@H](C(C)C)C(=O)N[C@@H](C(C)C)C(=O)N(C)[C@@H](CC(=O)OCCC(C)C)C(=O)N(C)[C@@H]([C@@H](C)CC)C(=O)N1C	57	1.3	5.7	7.8
CC[C@@H](C)[C@H]1C(=O)NCC(=O)N(C)[C@@H](C(C)C)C(=O)N[C@@H](Cc2ccc(OC)cc2)C(=O)O[C@H](C)C(=O)N2CCCC[C@H]2C(=O)N(C)[C@@H](C(C)C)C(=O)N[C@@H](C(C)C)C(=O)N(C)[C@H](CC(=O)NC(C)(C)C)C(=O)N(C)[C@@H]([C@@H](C)CC)C(=O)N1C	151	4.1	4.4	8.4
CC[C@H](C)[C@H]1C(=O)NCC(=O)N(C)[C@@H](C(C)C)C(=O)N[C@@H](Cc2ccc(OC)cc2)C(=O)O[C@H](C)C(=O)N2CCCC[C@H]2C(=O)N(C)[C@@H](C(C)C)C(=O)N[C@@H](C(C)C)C(=O)N(C)[C@@H](CC(=O)NCc2ccco2)C(=O)N(C)[C@@H]([C@@H](C)CC)C(=O)N1C	91	1.6	6.8	10
CC[C@H](C)[C@H]1C(=O)N(C)[C@@H]([C@@H](C)CC)C(=O)NCC(=O)N(C)[C@@H](C(C)C)C(=O)N[C@@H](Cc2ccc(OC)cc2)C(=O)O[C@H](C)C(=O)N2CCCC[C@H]2C(=O)N(C)[C@@H](C(C)C)C(=O)N[C@@H](C(C)C)C(=O)N(C)[C@H](CN(C)C(C=O)CCCC(=O)OC(C)(C)C)C(=O)N1C (stereo partly specified)	114	4.2	6.8	8.2
